# Reference: PubChem BioAssay AID1645868 (Buhrlage Lab, Dana-Farber Cancer Institute and Novartis …, 2021)
# Activity calls are given as the source filed them.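 The calls were made as follows: active = maximal percent inhibition of the deubiquitinase OTUD3 of at least 30% across the tested doses; inactive = the rest.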
# Target: OTU domain-containing protein 3 (Homo sapiens) (UniProt Q5T2D3)
# Test: Validation of screening hits, potency titration, in vitro enzymatic, OTU domain-containing protein 3 DUB inhibitors (AID 1645868)
# Settings: purified OTUD3, ubiquitin-rhodamine cleavage fluorescence, 2 h
# Chain of OTU domain-containing protein 3 (Homo sapiens) (Q5T2D3 whole entry, looked up, the tested form may be a part): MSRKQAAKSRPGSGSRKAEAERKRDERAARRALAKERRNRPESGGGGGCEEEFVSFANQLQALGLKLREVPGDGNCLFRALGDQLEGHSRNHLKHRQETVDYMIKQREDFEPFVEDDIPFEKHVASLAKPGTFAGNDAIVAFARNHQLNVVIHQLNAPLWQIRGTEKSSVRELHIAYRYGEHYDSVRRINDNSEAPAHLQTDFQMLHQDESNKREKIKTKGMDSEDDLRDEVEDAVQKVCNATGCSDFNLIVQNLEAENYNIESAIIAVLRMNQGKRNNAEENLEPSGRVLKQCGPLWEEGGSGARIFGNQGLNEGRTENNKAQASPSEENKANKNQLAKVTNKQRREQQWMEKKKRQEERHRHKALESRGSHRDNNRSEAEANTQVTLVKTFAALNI
row,Structure (SMILES),IC50
1,CC(=O)c1cc2c(=O)c3c(C(=O)O)c(O)c(O)cc3oc2c(C(C)=O)c1-c1coc2cc(O)c(O)c(C(=O)O)c2c1=O,0.369 µM
2,COc1ccc(NCc2cc(=O)n3[nH]c(NCc4ccc(C(C)C)cc4)nc3n2)cc1,> 50 µM (inactive)
3,CCN1C(=O)c2cccnc2Sc2cc(NC(=O)c3ccc(Cl)s3)ccc21,> 50 µM (inactive)
4,Cc1c(-c2nn3c(-c4ccco4)nnc3s2)cccc1[N+](=O)[O-],> 5 µM (inactive)
5,Cc1cc(C(=O)CN2CCN(Cc3ccc4c(c3)OCO4)CC2)c(C)n1-c1ccc2c(c1)OCO2,> 50 µM (inactive)
6,O=C(Cn1ccc2ccc(N3CCOCC3)nc21)NCc1ccccc1F,> 50 µM (inactive)
7,COc1cccc(OCCCn2c(C(C)NC(=O)c3ccco3)nc3ccccc32)c1 (stereo unspecified),32.8 µM
8,Cc1nc2ccccn2c1C1(O)C(=O)Nc2c(Cl)cc(Cl)cc21 (stereo unspecified),> 50 µM (inactive)
9,Cc1ccc(CNC(=O)CCCn2c(=O)c3sccc3n(CC(=O)OCc3ccccc3)c2=O)cc1,3.54 µM

# Now from value to compound:
row,IC50,Structure (SMILES)
1,> 50 µM (inactive),CC(C(=O)NCc1ccc2c(c1)OCO2)N1CCN(c2ccc(O)cc2)CC1 (stereo unspecified)
2,> 50 µM (inactive),COc1ccc(C(=O)CSc2ccc3nnc(CCNC(=O)c4ccc(OC)cc4)n3n2)cc1
3,31.2 µM,O=C(Cn1cc(C(=O)C2CC2)c2ccccc21)NCc1ccc2c(c1)OCO2
4,> 50 µM (inactive),Cc1oc(C2CC2)cc1C(=O)N1CCC2(CC1)CC1(CO2)Nc2ccccc2-n2cccc21 (stereo unspecified)
5,> 50 µM (inactive),COc1ccccc1-n1nnc(C(=O)Nc2ccc(Oc3ccccc3)cc2)c1C
6,31.6 µM,Cc1ccccc1-c1nnc(-c2ccc(C(=O)NCc3ccccc3F)cc2)o1
7,> 50 µM (inactive),Cc1cc(C(=O)N2CCN(C3CCN(Cc4ccc(Cl)o4)CC3)C(=O)C2)c(C)o1
8,29.2 µM,O=C(COc1ccc(Cl)cc1)Nc1noc(-c2ccccc2)n1
9,22.8 µM,O=C(Cc1nnc2c(-c3nc(C4CC4)no3)cccn12)Nc1ccccc1
10,> 50 µM (inactive),O=C(c1ccnn1-c1ccc2ccc(-c3ccncc3)cn12)N1CCCC1
11,> 50 µM (inactive),COc1ccccc1NS(=O)(=O)c1cccc(NC(=O)CCc2nc3ccccc3s2)c1
12,> 50 µM (inactive),Cc1nn(C)c2c1[C@@H](c1ccc(F)c(Br)c1)[C@H](NC(=O)c1ccccc1)C(=O)N2
